Source: US7105577B2, “Antimicrobial method using a hydroxydiphenyl ether compound” (Ciba Specialty Chemicals Corporation, priority 1999, dated 2006)
Converted amounts (≈) assume the structure as drawn. Where two headings read alike, the source gives them in different places.

Key:
Assay type in all cases: cell-based
[1] = tested on: Staphylococcus hominis DSM 20328; assay: Agar incorporation test, MIC; details: for MIC: DSM20328, Table 1, Staphylococcus hominis DSM 20328, agar incorporation, read-out: Minimum Inhibitory Concentration, SH
[2] = tested on: Aspergillus niger ATCC 6275; assay: Agar incorporation test, MIC; details: for MIC: ATCC6275
From the text: (§1) Medium: • Nutrient agar as test agar for bacteria: • Mueller hinton agar to cultivate the aerobic bacteria • Mueller hinton bouillon for obtaining the suspension of microorganisms • Ethanol as solvent • Wilkins-Chalgren agar to cultivate the […] bacteria • Sabouraud glucose agar to cultivate the dermatophytes
(§2) Examples of Test bacteria • Staphylococcus aureusATCC 6538 • Staphylococcus hominis DSM 20330 • Escherichia coli NCTC 8196 • Pseudomonas aeruginosa CIP A-22 • Candida albicans ATCC 10231 • Aspergillus niger ATCC 6275
(§3) Procedure: The test substances are dissolved in ethanol, and a dilution series of the compound of the formula (102) in agar are prepared. • Anaerobic bacteria and dermatophytes are activated on agar-plates, and washes off with Mueller-Hinton bouillon. Aerobic bacteria are activated in Mueller-Hinton bouillon overnight. The test germ suspension are diluted with Mueller-Hinton bouillon to a density of McFarland standard 0.5. • 10 μl of each germ suspension is dropped onto the agar plates containing the test substance, and the plates are then incubated at 37° C. for 2 days. (Aerobic bacteria are incubated at 36° C. for 72 hours, anaerobic bacteria are incubated at 30° C. for 72 hours). As controls, the bacterial suspensions are applied to agar plates without test substances.

[3] = tested on: Candida albicans ATCC 10231; assay: Agar incorporation test, MIC; details: for MIC: ATCC10231
From the text: as §1, §2, §3

[4] = tested on: Escherichia coli NCTC 8196; assay: Agar incorporation test, MIC; details: for MIC: NCTC8196
From the text: as §1, §2, §3

[5] = tested on: Staphylococcus aureus ATCC 6538; assay: Agar incorporation test, MIC; details: for MIC: ATCC6538
From the text: as §1, §2, §3

[6] = tested on: Pseudomonas aeruginosa CIP A-22; assay: Agar incorporation test, MIC; details: for MIC: CIPA22
From the text: as §1, §2, §3

[7] = tested on: Actinomyces viscosum DSM 43329; assay: Microbiological data (MIC); details: Table 4
Description: as §1, §3
(§4) Microbiological data of the above compounds (MIC in ppm): […]

[8] = tested on: Corynebacterium minutissimum ATCC 23348; assay: Microbiological data (MIC); details: Table 4
Description: as §1, §3, §4

[9] = tested on: Corynebacterium xerosis ATCC 373/ATCC 7711; assay: Microbiological data (MIC); details: Table 4
Description: as §1, §3, §4

[10] = tested on: Epidermophyton floccosum CBS 55384; assay: Microbiological data (MIC); details: Table 4
Description: as §1, §3, §4

[11] = tested on: Porphyromonas gingivalis DSM 20709; assay: Microbiological data (MIC); details: Table 4
Description: as §1, §3, §4

[12] = tested on: Propionibacterium acnes ATCC 11829; assay: Microbiological data (MIC); details: Table 4
Description: as §1, §3, §4

[13] = tested on: Proteus vulgaris ATCC 6896; assay: Microbiological data (MIC); details: Table 4
Description: as §1, §3, §4

[14] = tested on: Selenomonas artemidis ATCC 43528; assay: Microbiological data (MIC); details: Table 4
Description: as §1, §3, §4

[15] = tested on: Staphylococcus epidermidis ATCC 12228; assay: Microbiological data (MIC); details: Table 4
Description: as §1, §3, §4

[16] = tested on: Streptococcus sobrinus DSM 20742; assay: Microbiological data (MIC); details: Table 4
Description: as §1, §3, §4

[17] = tested on: Trichophyton mentagrophytes ATCC 9553; assay: Microbiological data (MIC); details: Table 4
Description: as §1, §3, §4

[18] = tested on: Trichophyton rubrum DSM 4167; assay: Microbiological data (MIC); details: Table 4
Description: as §1, §3, §4

[19] = tested on: Malassezia furfur DSM 6171; assay: Microbiological data (MIC); details: DSM6171, Table 4
Description: as §1, §3, §4

[20] = Table 1, Aspergillus niger ATCC 6275, agar incorporation, read-out: Minimum Inhibitory Concentration, AN
[21] = Table 1, Candida albicans ATCC 10231, agar incorporation, read-out: Minimum Inhibitory Concentration, CA
[22] = Table 1, Escherichia coli NCTC 8196, agar incorporation, read-out: Minimum Inhibitory Concentration, EC
[23] = Table 1, Staphylococcus aureus ATCC 6538, agar incorporation, read-out: Minimum Inhibitory Concentration, SA
[24] = Table 1, Pseudomonas aeruginosa CIP A-22, agar incorporation, read-out: Minimum Inhibitory Concentration, PA

Structure (SMILES) | MIC [1] [µg/mL] | MIC [2, 20] [µg/mL] | MIC [3, 21] [µg/mL] | MIC [4, 22] [µg/mL] | other results
CCCCc1ccc(Oc2ccccc2)cc1O [(104)] | 30 (≈ 124 µM) | 60 (≈ 248 µM) | 30 (≈ 124 µM) | 30 (≈ 124 µM) | 
CCCc1ccc(Oc2ccccc2)cc1O [(105)] | 30 (≈ 131 µM) | 30 (≈ 131 µM) | 30 (≈ 131 µM) | 30 (≈ 131 µM) | 
CCCCCc1ccc(Oc2ccccc2)cc1O [(106)] | 30 (≈ 117 µM) | 60 (≈ 234 µM) | 60 (≈ 234 µM) | 30 (≈ 117 µM) | 
Oc1ccccc1Oc1ccccc1 [(107)] | 30 (≈ 161 µM) | 120 (≈ 644 µM) |  | 30 (≈ 161 µM) | 
CCC(=O)c1ccc(O)c(Oc2ccccc2)c1 [(108)] | 60 (≈ 248 µM) |  |  | 120 (≈ 495 µM) | 
CCCC(=O)c1ccc(O)c(Oc2ccccc2)c1 [(109)] | 30 (≈ 117 µM) | 120 (≈ 468 µM) | 120 (≈ 468 µM) | 30 (≈ 117 µM) | 
O=Cc1ccc(O)c(Oc2ccccc2)c1 [(110)] |  |  |  | 30 (≈ 140 µM) | 
CCC(C)c1ccccc1Oc1ccccc1O (stereo not shown) [(111)] | 60 (≈ 248 µM) | 120 (≈ 495 µM) | 30 (≈ 124 µM) |  | 
CC(C)c1ccccc1Oc1ccccc1O [(112)] | 60 (≈ 263 µM) | 120 (≈ 526 µM) | 60 (≈ 263 µM) |  | 
Cc1ccccc1Oc1ccccc1O [(113)] | 30 (≈ 150 µM) | 60 (≈ 300 µM) | 120 (≈ 599 µM) | 30 (≈ 150 µM) | 
CC(C)(C)c1ccccc1Oc1ccccc1O [(114)] | 30 (≈ 124 µM) | 120 (≈ 495 µM) | 60 (≈ 248 µM) | 30 (≈ 124 µM) | 
CCc1ccccc1Oc1ccccc1O [(115)] | 120 (≈ 560 µM) | 120 (≈ 560 µM) | 120 (≈ 560 µM) | 120 (≈ 560 µM) | 
CCC(C)c1ccccc1Oc1cccc(O)c1 (stereo not shown) [(116)] | 30 (≈ 124 µM) | 30 (≈ 124 µM) | 30 (≈ 124 µM) |  | 
Oc1ccc(Oc2ccccc2O)cc1 [(117)] |  |  |  | 60 (≈ 297 µM) | 
Cc1ccc(C(C)C)c(Oc2ccc(O)cc2)c1 [(118)] | 3 (≈ 12.4 µM) |  | 50 (≈ 206 µM) | 50 (≈ 206 µM) | MIC [5, 23]: 5 µg/mL (≈ 20.6 µM)
Cc1ccc(C2CCCCC2)c(Oc2ccc(O)cc2)c1 [(119)] | 3 (≈ 10.6 µM) |  |  |  | MIC [5, 23]: 3 µg/mL (≈ 10.6 µM)
CC(C)CCc1ccc(Oc2ccc(O)cc2)cc1 [(120)] | 4 (≈ 15.6 µM) |  |  |  | 
Cc1ccc(C(C)(C)C)c(Oc2ccc(O)cc2)c1 [(121)] | 5 (≈ 19.5 µM) |  | 13 (≈ 50.7 µM) |  | MIC [5, 23]: 7 µg/mL (≈ 27.3 µM)
Cc1ccc(C(C)C)cc1Oc1ccc(O)cc1 [(122)] | 6 (≈ 24.8 µM) |  | 13 (≈ 53.6 µM) |  | MIC [5, 23]: 6 µg/mL (≈ 24.8 µM)
Oc1ccc(Oc2ccc(CCc3ccccc3)cc2)cc1 [(123)] | 8 (≈ 27.6 µM) |  |  |  | 
CCc1ccc(Oc2ccc(O)cc2)c(C(C)C)c1 [(124)] | 8 (≈ 31.2 µM) |  | 60 (≈ 234 µM) |  | 
CCCc1ccc(Oc2ccc(O)cc2)cc1 [(125)] | 30 (≈ 131 µM) |  | 30 (≈ 131 µM) | 120 (≈ 526 µM) | 
CCc1ccc(Oc2ccc(O)cc2)cc1 [(126)] | 120 (≈ 560 µM) |  | 120 (≈ 560 µM) | 120 (≈ 560 µM) | 
Oc1ccc(Oc2ccccc2)cc1 [(127)] |  |  | 50 (≈ 269 µM) | 100 (≈ 537 µM) | MIC [6, 24]: 50 µg/mL (≈ 269 µM); MIC [5, 23]: 500 µg/mL (≈ 2690 µM)
Oc1ccc(Oc2ccc(C(F)(F)F)cc2)cc1 [(128)] |  |  | 50 (≈ 197 µM) | 50 (≈ 197 µM) | MIC [6, 24]: 50 µg/mL (≈ 197 µM); MIC [5, 23]: 50 µg/mL (≈ 197 µM)
Cc1ccc(C)c(Oc2ccc(O)cc2)c1 [(129)] |  |  | 25 (≈ 117 µM) |  | MIC [6, 24]: 25 µg/mL (≈ 117 µM); MIC [5, 23]: 50 µg/mL (≈ 233 µM)
CCCc1ccc(Oc2ccc(O)cc2)c(C(C)C)c1 [(130)] |  |  | 20 (≈ 74 µM) |  | MIC [6, 24]: 20 µg/mL (≈ 74 µM); MIC [5, 23]: 50 µg/mL (≈ 185 µM)
Cc1ccc(C(C)C)cc1Oc1ccc(O)cc1 [R1 = Me R2 = i-Propyl] |  |  |  |  | MIC, Staphylococcus hominis DSM 20328 ([1]; Table 4): 6.25 ppm; MIC, Aspergillus niger ATCC 6275 ([2]; Table 4): 50 ppm; MIC, Candida albicans ATCC 10231 ([3]; Table 4): 12.5 ppm; MIC, Escherichia coli NCTC 8196 ([4]; Table 4): >200 ppm; MIC, Pseudomonas aeruginosa CIP A-22 ([6]; Table 4): >200 ppm; MIC, Staphylococcus aureus ATCC 6538 ([5]; Table 4): 6.25 ppm; MIC, Actinomyces viscosum DSM 43329 [7]: 80 ppm; MIC, Corynebacterium minutissimum ATCC 23348 [8]: 6.25 ppm; MIC, Corynebacterium xerosis ATCC 373/ATCC 7711 [9]: 3.125 ppm; MIC, Epidermophyton floccosum CBS 55384 [10]: <3.125 ppm; MIC, Porphyromonas gingivalis DSM 20709 [11]: 5 ppm; MIC, Propionibacterium acnes ATCC 11829 [12]: 10 ppm; MIC, Proteus vulgaris ATCC 6896 [13]: >200 ppm; MIC, Selenomonas artemidis ATCC 43528 [14]: 10 ppm; MIC, Staphylococcus epidermidis ATCC 12228 [15]: 6.25 ppm; MIC, Streptococcus sobrinus DSM 20742 [16]: 5 ppm; MIC, Trichophyton mentagrophytes ATCC 9553 [17]: 6.25 ppm; MIC, Trichophyton rubrum DSM 4167 [18]: 5 ppm
Cc1ccc(C)c(Oc2ccc(O)cc2)c1 [R1 = R2 = Me] |  |  |  |  | MIC, Candida albicans ATCC 10231 ([3]; Table 4): 25.0 ppm; MIC, Escherichia coli NCTC 8196 ([4]; Table 4): >200 ppm; MIC, Pseudomonas aeruginosa CIP A-22 ([6]; Table 4): >200 ppm; MIC, Staphylococcus aureus ATCC 6538 ([5]; Table 4): 50.0 ppm; MIC, Corynebacterium minutissimum ATCC 23348 [8]: 25.0 ppm; MIC, Corynebacterium xerosis ATCC 373/ATCC 7711 [9]: 25.0 ppm; MIC, Proteus vulgaris ATCC 6896 [13]: >200 ppm; MIC, Staphylococcus epidermidis ATCC 12228 [15]: 25.0 ppm
Cc1ccc(C(C)(C)C)c(Oc2ccc(O)cc2)c1 [R1 = t-Butyl R2 = Me, 4-(2-t-Butyl-5-methylphenoxy)phenol] |  |  |  |  | MIC ([2]; Aspergillus niger, Table 4, read-out: MIC, Aspergillus niger ATCC 6275): 6.75 µg/mL (≈ 26.3 µM); MIC ([3]; Candida albicans, Table 4, read-out: MIC, Candida albicans ATCC 10231): 12.5 µg/mL (≈ 48.8 µM); MIC ([4]; Escherichia coli, Table 4, read-out: MIC, Escherichia coli NCTC 8196): > 100 µg/mL; MIC ([6]; Pseudomonas aeruginosa, Table 4, read-out: MIC, Pseudomonas aeruginosa CIP A-22): > 100 µg/mL; MIC ([5]; Staphylococcus aureus, Table 4, read-out: MIC, Staphylococcus aureus ATCC 6538): 6.75 µg/mL (≈ 26.3 µM); MIC ([7]; Actinomyces, DSM43329): 5 µg/mL (≈ 19.5 µM); MIC ([8]; Corynebacterium minutissimum, ATCC23348): 3.4 µg/mL (≈ 13.3 µM); MIC ([9]; Corynebacterium xerosis): 3.4 µg/mL (≈ 13.3 µM); MIC ([10]; Epidermophyton floccosum, CBS55384): 1.65 µg/mL (≈ 6.44 µM); MIC [19]: 2.5 µg/mL (≈ 9.75 µM); MIC ([11]; Porphyromonas gingivalis, DSM20709): 1.25 µg/mL (≈ 4.88 µM); MIC ([12]; Cutibacterium acnes, ATCC11829): 5 µg/mL (≈ 19.5 µM); MIC ([13]; Proteus vulgaris, ATCC6896): > 100 µg/mL; MIC ([14]; Centipeda artemidis, ATCC43528): 5 µg/mL (≈ 19.5 µM); MIC ([15]; Staphylococcus epidermidis, ATCC12228): 3.4 µg/mL (≈ 13.3 µM); MIC ([16]; Streptococcus sobrinus, DSM20742): 5 µg/mL (≈ 19.5 µM); MIC ([17]; Trichophyton mentagrophytes, ATCC9553): 3.4 µg/mL (≈ 13.3 µM); MIC ([18]; Trichophyton rubrum, DSM4167): 10 µg/mL (≈ 39 µM)
